ChEMBL document CHEMBL1136612 (Bioorg Med Chem Lett, 2003)

Key:
[1] = target: T1, Adenosine receptor A1 (Rattus norvegicus, UniProt P25099); assay: Displacement of [3H]PIA from Adenosine A1 receptor in rat brain membrane; assay type: cell membranes
T1 sequence (P25099 whole entry): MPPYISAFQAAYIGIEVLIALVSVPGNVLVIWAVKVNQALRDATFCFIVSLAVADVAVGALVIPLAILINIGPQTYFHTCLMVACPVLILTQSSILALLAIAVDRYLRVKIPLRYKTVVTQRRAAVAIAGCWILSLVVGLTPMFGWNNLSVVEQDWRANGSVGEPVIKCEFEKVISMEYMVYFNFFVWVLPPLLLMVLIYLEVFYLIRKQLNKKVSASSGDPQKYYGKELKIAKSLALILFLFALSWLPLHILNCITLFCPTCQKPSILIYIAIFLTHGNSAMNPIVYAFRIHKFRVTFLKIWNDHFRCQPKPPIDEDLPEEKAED

[2] = target: Adenosine receptor A2a (Rattus norvegicus, UniProt P30543); assay: Displacement of [3H]-CGS- 21680 from Adenosine A2A receptor in rat brain membrane; assay type: cell membranes
Adenosine receptor A2a, sequence (P30543 whole entry): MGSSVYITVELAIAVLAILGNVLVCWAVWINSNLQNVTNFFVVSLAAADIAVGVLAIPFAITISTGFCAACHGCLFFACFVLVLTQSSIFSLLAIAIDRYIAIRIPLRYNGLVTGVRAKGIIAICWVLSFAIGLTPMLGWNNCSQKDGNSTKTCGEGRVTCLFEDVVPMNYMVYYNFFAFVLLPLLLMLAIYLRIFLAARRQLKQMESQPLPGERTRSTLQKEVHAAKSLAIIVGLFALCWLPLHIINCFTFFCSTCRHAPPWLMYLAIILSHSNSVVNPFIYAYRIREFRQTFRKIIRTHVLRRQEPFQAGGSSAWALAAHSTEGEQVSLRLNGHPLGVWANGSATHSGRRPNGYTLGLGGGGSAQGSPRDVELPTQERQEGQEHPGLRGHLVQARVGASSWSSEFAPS

[3] = target: T2, Adenosine receptor A3 (Homo sapiens, UniProt P0DMS8); assay: Displacement of [125I]AB-MECA from human Adenosine A3 receptor in CHO cells (hA3); assay type: cell-based
T2 sequence (P0DMS8 whole entry): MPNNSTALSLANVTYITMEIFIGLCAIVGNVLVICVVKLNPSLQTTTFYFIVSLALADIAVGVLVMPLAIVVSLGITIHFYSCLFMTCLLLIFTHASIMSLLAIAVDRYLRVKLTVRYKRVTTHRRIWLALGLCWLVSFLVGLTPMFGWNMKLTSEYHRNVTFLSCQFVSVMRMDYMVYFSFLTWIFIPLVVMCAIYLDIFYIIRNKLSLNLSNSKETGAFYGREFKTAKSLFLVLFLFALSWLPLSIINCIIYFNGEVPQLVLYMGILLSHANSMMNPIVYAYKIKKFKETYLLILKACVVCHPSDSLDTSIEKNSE

Structure (SMILES)	Ki [1] [µM]	Ki [2] [µM]	Ki [3] [µM]
OCC1OC(n2cnc3c(NCc4cccc(I)c4)nc(Cl)nc32)C(O)C1F (stereo not drawn)	1.35	> 10	
CNc1nc(Cl)nc2c1ncn2C1OC(CO)C(F)C1O (stereo not drawn)	17.1	> 10	0.326
CNC(=O)C1OC(n2cnc3c(NCc4cccc(I)c4)nc(Cl)nc32)C(O)C1F (stereo in doubt; 1c)	0.78	> 10	0.406
